Source: patent US12692283B2, “Lignan derivative, preparation method therefor and use thereof” (SHANGHAI INSTITUTE OF MATERIA MEDICA, CHINESE ACADEMY OF …, priority 2021, dated 2026)

Columns and labels:
[1] = target: Mitochondrial Respiratory Complex I (Complex I) (Mus musculus, UniProt P03888+Q91WD5+Q9DC70); assay: Inhibitory activity on mitochondrial respiratory Complex I (NADH activity, mitochondria from mouse heart tissue); type: biochemical; conditions: NADH 50 μM, read at 340 nm, 30 μg mouse heart mitochondrial protein
Procedure: Mitochondria were extracted from mouse heart tissue. […] of solution A (0.22M mannitol, 0.07M sucrose, 0.02M HEPES, 2 mM Tris-HCl, 1 mM EDTA, pH 7.2, 0.4% BSA) was added to the heart tissue. The tissue was cut up and then washed three times with solution A to remove blood and connective tissue, then homogenized using a glass homogenizer about 30 times. The suspension was centrifuged at 3000 g for 1.5 min, and the supernatant was retained. The precipitate was resuspended in solution A with protease inhibitor and re-centrifuged to collect the supernatant. The supernatants from two collections were mixed for the next step. The supernatant was centrifuged at 17500 g for 2.5 min and the supernatant was discarded. The precipitate was resuspended in solution A with protease inhibitor, centrifuged at 17500 g for 4.5 min, resuspended in solution B (2.5 mM potassium phosphate, 5 mM MgCl2 pH 7.2) and repeatedly frozen and thawed to obtain a solution of the mitochondrial complex for subsequent assay. To measure the NADH activity of Complex I, 2.5 mL of reaction solution containing 50 mM HEPES, 5 mM MgCl2 pH 7.5 and 30 μg of mitochondrial protein from the above process was prepared. The compound to be detected was added and equilibrated for 5 minutes, and then was dispensed into each well. Finally, NADH (50 μM) was quickly added, and data at […] were read every 30 sec for a total of 15 minutes. Calculation: the NADH reaction rates for different compounds were calculated, then the inhibition rate (compound reaction rate/control reaction rate×100) was calculated, and the IC50 value of the compound was finally calculated.

OCI-AML3 cells = assay: Viability of human acute myeloid leukemia cells OCI-AML3 (CCK8); type: cell-based; conditions: OCI-AML-3, 72 h, incubation 3 days
Procedure: (§1) OCI-AML3 cells, suspension cells, were cultured in RPIM1640+10% FBS+1% PS culture medium at 37° C. and 5% CO2. OCI-AML3 was seeded in a 96-well plate at 20,000 cells/well, and different concentrations of compounds were added (40 μM was the highest concentration, diluted according to ¼, a total of 7 concentrations). After incubation for 3 days, 10 μl CCK8 reagent was added to each well. After incubation for 2 hours, OD450 was detected by a microplate reader, then the effect of the compound on cell viability, IC50 value was calculated.

NB-1 cells = assay: Viability of human neuroblastoma cells NB-1 (CCK8); type: cell-based; conditions: NB1, 72 h, incubation 3 days
Procedure: as §1, with “NB-1” for “OCI-AML3”, “μL” for “μl”

MLO-Y4 senescent cells = assay: Viability of doxorubicin-induced senescent MLO-Y4 mouse osteoid cells (MTT); type: cell-based; conditions: MLO-Y4, 72 h, senescent cells induced by 100 nM doxorubicin, co-incubation 3 days, read-out: MOL-Y4 IC50
Procedure: MOL-Y4 cells were cultured in MEM culture medium (supplemented with 10% FBS, 1% PS).
(§2) The experimental steps for testing the effects of compounds on the viability of MOL-Y4 senescent cells were as follows. MOL-Y4 cells were seeded in a 96-well plate at 20,000 cells/well. After overnight, 100 nM doxorubicin was added to each well and incubated for 3 days. Then the medium was replaced with normal culture medium. After 1 day of incubation, the culture medium was replaced with 100 nM doxorubicin and incubated for 3 days to successfully induce senescence of MOL-Y4 cells. Subsequently, different concentrations of compounds were added (40 μM was the highest concentration, and diluted according to ¼, a total of 7 concentrations), and after co-incubation for 3 days, 10 μl of MTT (5 mg/ml) was added to each well and incubated for 4 hours. DMSO (150 μl) was added to each well after aspirating the culture medium.

WI-38 senescent cells = assay: Viability of doxorubicin-induced senescent WI-38 human fibroblasts (MTT); type: cell-based; conditions: WI-38, 72 h, senescent cells induced by 200 nM doxorubicin, co-incubation 3 days
Procedure: WI-38 cells were cultured in DMEM (high glucose, 4.5 g/L) culture medium (supplemented with 10% FBS, 1% PS).
as §2, with “experimental testing” for “experimental”, “for” for “for testing”, “WI-38” for “MOL-Y4”, “200” for “100”

[2] = Oral pharmacokinetics of Compound A4-1a and Arctigenin in ICR mice (plasma, liver, colon); type: in vivo, mouse; conditions: oral 30 mg/kg, 1-8 h
Procedure: Arctigenin and Compound A4-1a were administered orally at 30 mg/kg to overnight-fasted ICR mice (male, n=3/time point), respectively. The mice were fed 2 hours after administration. Samples were collected before administration and 1 h, 2 h, 4 h, and 8 h after administration. Blood was collected in centrifuge tubes pretreated with heparin sodium and bis(4-nitrophenyl)phosphate (BNPP). After centrifugation at 11,000 rpm for 5 min at 4° C., plasma was obtained and stored at −80° C. Next, 100 […] of plasma sample, precipitated, vortexed for 1 min, and centrifuged (11,000 rpm) for 5 min. A mixture of 20 […] of methanol/acetonitrile (1:1, v/v) was taken to analyze the concentration of the compound by LC-MS/MS. Liver tissue was stored at −80° C. until analysis. After removal of contents, the colon was quickly washed with cold saline containing BNPP and stored at −80° C. until analysis. Analysis method: After 10 times the weight of MeOH/ACN (1:1, v/v) was added to the tissue samples, the homogenate was obtained by homogenizing for 120 s with a homogenizer at 50 Hz and then centrifuged (11000 rpm) for 5 min, and the supernatant was collected. 20 μL of the supernatant was redissolved in 20 μL of ACN/H2O (1:1, v/v), and the compound concentration was analyzed in LC-MS/MS.

[3] = Acta Pharmacologica Sinica, 2018, 39, 787-801, cited from earlier work
[4] = test system: mitochondrial respiratory chain complex I; conditions: ACS Chemical Biology, 2013, 8 (1), 257-267; cited from earlier work

Sequence of Mitochondrial Respiratory Complex I (Complex I) (P03888 whole entry): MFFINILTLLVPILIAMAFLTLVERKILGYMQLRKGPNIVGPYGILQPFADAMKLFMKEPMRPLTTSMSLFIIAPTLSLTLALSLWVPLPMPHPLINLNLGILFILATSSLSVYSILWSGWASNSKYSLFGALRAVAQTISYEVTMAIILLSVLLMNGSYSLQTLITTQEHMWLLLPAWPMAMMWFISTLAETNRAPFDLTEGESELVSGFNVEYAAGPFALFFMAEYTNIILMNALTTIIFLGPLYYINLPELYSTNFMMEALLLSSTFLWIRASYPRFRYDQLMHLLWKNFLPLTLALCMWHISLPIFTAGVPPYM
Sequence of Mitochondrial Respiratory Complex I (Complex I) (Q91WD5 34-463): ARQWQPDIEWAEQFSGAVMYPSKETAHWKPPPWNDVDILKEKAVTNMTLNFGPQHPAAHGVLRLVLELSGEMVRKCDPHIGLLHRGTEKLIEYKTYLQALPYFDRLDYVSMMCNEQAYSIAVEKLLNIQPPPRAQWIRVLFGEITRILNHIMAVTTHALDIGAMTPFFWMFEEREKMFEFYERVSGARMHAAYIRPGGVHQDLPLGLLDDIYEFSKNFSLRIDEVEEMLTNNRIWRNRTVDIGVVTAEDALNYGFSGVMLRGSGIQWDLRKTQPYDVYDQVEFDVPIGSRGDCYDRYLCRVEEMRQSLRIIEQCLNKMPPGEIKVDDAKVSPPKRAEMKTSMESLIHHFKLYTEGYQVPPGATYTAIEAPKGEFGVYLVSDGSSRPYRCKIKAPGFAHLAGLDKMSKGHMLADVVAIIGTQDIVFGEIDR
Sequence of Mitochondrial Respiratory Complex I (Complex I) (Q9DC70 36-224): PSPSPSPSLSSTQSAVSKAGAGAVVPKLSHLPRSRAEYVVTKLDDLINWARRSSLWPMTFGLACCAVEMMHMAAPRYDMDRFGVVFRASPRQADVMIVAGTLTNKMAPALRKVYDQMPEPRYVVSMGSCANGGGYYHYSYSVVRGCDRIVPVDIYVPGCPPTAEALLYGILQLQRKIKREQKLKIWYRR

SMILES | IC50 [1] [nM] | IC50 (OCI-AML3 cells) [nM] | IC50 (NB-1 cells) [nM] | further results
COc1ccc(C[C@H]2COC(=O)[C@@H]2Cc2ccc(O)c(OCCn3cccc3)c2)cc1OC [Compound B9-1r] | 316 |  |  | 
COc1ccc(C[C@H]2COC(=O)[C@]2(C)Cc2ccc(O)c(OCC(O)c3ccc(C(F)(F)F)cc3)c2)cc1OC (stereo partly shown) [Compound B11-1c] |  | 289 | 446 | 
COc1cc(C[C@@]2(Cl)C(=O)OC[C@@H]2Cc2ccc(OC)c(OC)c2)ccc1O [Compound A4-1d] |  | 169 | 546 | 
COc1ccc(C[C@H]2COC(=O)[C@]2(C)Cc2ccc(O)c(OCCc3ccccc3)c2)cc1OC [Compound B11-1a, (3R,4R)-4-(3,4-dimethoxybenzyl)-3-(4-hydroxy-3-phenylethoxybenzyl)-3-methyldihydrofuran-2 (3H)-one] | 646 |  |  | 
COc1cc(C[C@@]2(CCl)C(=O)OC[C@@H]2Cc2ccc(OC)c(OC)c2)ccc1O [Compound A4-1e] | 473 |  |  | IC50 (MLO-Y4 senescent cells): 150 nM; IC50 (WI-38 senescent cells): 1000 nM
COc1ccc(C[C@H]2COC(=O)[C@@H]2Cc2ccc(O)c(OCCc3ccccc3)c2)cc1OC [Compound B9-1a, (3R,4R)-4-(3,4-dimethoxybenzyl)-3-(4-hydroxy-3-phenylethoxybenzyl)dihydrofuran-2 (3H)-one] | 54 |  |  | 
COc1ccc(C[C@H]2COC(=O)[C@@H]2Cc2ccc(O)c(OCC(F)(F)F)c2)cc1OC [Compound B9-1e] |  | 274 | 175 | 
COc1ccc(C[C@H]2COC(=O)[C@@H]2Cc2ccc(O)c(OCC(O)c3ccccc3)c2)cc1OC (stereo partly shown) [Compound B9-1u] | 564 |  |  | 
COc1cc(C[C@]2(F)C(=O)OC[C@@H]2Cc2ccc(OC)c(OC)c2)ccc1O [Compound A4-1b] | 1270 |  |  | 
COc1cc(C[C@@]2(CO)C(=O)OC[C@@H]2Cc2ccc(OC)c(OC)c2)ccc1O [Compound A4-1i] |  | 91 | 433 | 
COc1ccc(C[C@H]2COC(=O)[C@]2(C)Cc2ccc(O)c(OCC(F)(F)F)c2)cc1OC [Compound B11-1b] | 668 | 47 | 626 | 
[2H]C([2H])([2H])Oc1cc(C[C@H]2C(=O)OC[C@@H]2Cc2ccc(OC)c(OC)c2)ccc1O [Compound B9-1d] | 696 | 602 |  | 
COc1cc(C[C@H]2COC(=O)[C@]2(C)Cc2ccc(O)c(OC)c2)ccc1O [Compound B11-1e] | 1370 |  |  | 
COc1ccc(C[C@H]2COC(=O)[C@@H]2Cc2ccc(O)c(OCC(O)c3ccc(C(F)(F)F)cc3)c2)cc1OC (stereo partly shown) [Compound B9-1x] | 650 |  |  | 
COc1cc(C[C@@]2(C)C(=O)OC[C@@H]2Cc2ccc3c(c2)OCO3)ccc1O [Compound B11-1f] | 420 |  |  | 
COc1ccc(C[C@H]2COC(=O)[C@@H]2Cc2ccc(O)c(OCc3ccccc3)c2)cc1OC [Compound B9-1p] | 465 |  |  | 
COc1ccc(C[C@H]2COC(=O)[C@@H]2Cc2ccc(O)c(OCCc3ccc(C(F)(F)F)cc3)c2)cc1OC [Compound B9-1q] | 64 |  |  | 
COc1ccc(C[C@H]2COC(=O)[C@]2(C)Cc2ccc(OC)c(OC)c2)cc1OC [Compound B11-1h] | 13200 |  |  | 
COc1cc(C[C@@]2(F)C(=O)OC[C@@H]2Cc2ccc(OC)c(OC)c2)ccc1O [Compound A4-1c] | 185 |  |  | 
COc1cc(C[C@@]2(C)C(=O)OC[C@@H]2Cc2ccc(OC)c(OC)c2)ccc1O [Compound A4-1a, (3R,4R)-4-(3,4-dimethoxybenzyl)-3-(4-hydroxy-3-methoxybenzyl)-3-methyldihydrofuran-2 (3H)-one] | 507 | 81 | 424 | IC50 (MLO-Y4 senescent cells): 40 nM; IC50 (WI-38 senescent cells): 38 nM; drug concentrations in plasma and tissues compared with Arctigenin [2]: significantly higher drug concentrations in plasma and tissues
COc1cc(C[C@H]2C(=O)OC[C@@H]2Cc2ccc(OC)c(OC)c2)ccc1O [Arctigenin] |  | 589 | 2380 | metabolism after oral administration [3]: easily metabolized after oral administration; bioavailability ([3]; oral): low bioavailability; pharmacokinetic properties ([3]; oral): poor pharmacokinetic properties; inhibition of mitochondrial respiratory chain complex I [4]: moderately potent and selective inhibitor
COc1ccc(C[C@H]2COC(=O)[C@@H]2Cc2ccc(O)c(OCCCc3ccccc3)c2)cc1OC [Compound B9-1v] | 34 |  |  | 
CC1(C)CCC(c2ccc(Cl)cc2)=C(CN2CCN(c3ccc(C(=O)NS(=O)(=O)c4ccc(N[C@H](CCN5CCOCC5)CSc5ccccc5)c(S(=O)(=O)C(F)(F)F)c4)cc3)CC2)C1 [ABT263, reference compound] |  |  |  | IC50 (MLO-Y4 senescent cells): 235 nM; IC50 (WI-38 senescent cells): 5600 nM
